Tested on: human stem cell-derived cardiomyocytes
Experimental: First, step G-1, replaces the maintenance medium in the MEA plate that has undergone the 3rd incubation step (step F-3) with a fresh maintenance medium, and places the MEA plate into the cell culture incubator at 37° C. and 5% CO2 for 3 to 5 hours (preferably 3 hours) for stabilization of cells.
Next, the first set of measurement values on beat rate, spike amplitude, and field potential duration of the human stem cell-derived cardiomyocytes are taken (step G-2) with the MEA measurement device for the MEA plate that has undergone cell stabilization step (step G-1).
After the completion of the first measurement, a portion of the maintenance medium, which corresponds to 1/10 of the total volume in the well, is removed from wells of the MEA plate that has undergone the stabilization process. […]
Here, raw files stored in the MEA measurement device program are loaded, and the desired section of the data is re-recorded and saved as a CSV file. Then the drug's effect on the field potential of cardiomyocytes is evaluated by the changes in the reaction parameter, based on the first and second measurement values which include beat interval, spike amplitude, and field potential duration, to various concentrations of the drug.
In addition, the cardiac toxicity of a drug can be determined through changes in FPDcF and spike amplitude. […]

SMILES: Cc1cccc(C)c1OCC(C)N (stereo not shown) [Mexiletine]
- change in spike amplitude: decrease in the spike amplitude according to the drug concentration
